Measured values from patent US4558033A, “Potentiation of the effects of insulin by peptides” (Amgen, priority 1983, dated 1985).
No end group written: not given here.

Assays:
[1] = cited from earlier work
[2] = after hGH administration; cited from earlier work
[3] = test system: rats given an intraperitoneal glucose load; assay: Plasma glucose in rats given an intraperitoneal glucose load, DP with and without insulin (Example 2); type: in vivo, Sprague-Dawley rats; conditions: for Plasma Glucose at 60 minutes: i.p. glucose load
Experimental: (§1) A study was conducted to determine the effect on plasma glucose of deletion peptide, with and without insulin, in rats given an intraperitoneal glucose load. Groups of five male Sprague-Dawley rats were involved in this study. All weighed between 160 to 168 grams and were maintained on standard laboratory diet until 18 hours prior to the test procedures. Test groups of fasted rats received, in rapid succession, 1.0 ml of 0.75 M glucose, 10 mU of insulin in admixture with 1% bovine serum albumin (BSA) in normal saline (pH 7.4), and either 0, 25, 50 or 100 μg doses of deletion peptide. Control groups of rats received glucose and 1% BSA in saline with no insulin but with similarly varying levels of deletion peptide. Plasma glucose determinations were made on blood drawn one hour after administration of test substances and the results (means, ± standard errors) of these determinations are set out in Table I below.

[4] = test system: rats given an intraperitoneal glucose load; assay: Plasma glucose in rats given an intraperitoneal glucose load, increasing insulin doses with and without 100 μg DP (Example 3); type: in vivo; conditions: for Plasma Glucose at 60 minutes: i.p. glucose load
Experimental: as §1
A study was conducted under the same general procedures as Example 2 to determine the effect of increasing doses of insulin, with and without 100 μg of deletion peptide, on rats given an intraperitoneal glucose load. The results of plasma glucose determinations on blood drawn after 60 minutes are set out below in Table II.

[5] = test system: mice ob/ob, ob/+, db/db, db/m; assay: Plasma glucose after glucose load, fixed insulin and DP doses, normal and genetically abnormal mice (Example 4); type: in vivo; conditions: for Plasma Glucose at 60 min: i.p. glucose, insulin 0.001 mU/10g
Experimental: (§2) A study was conducted to ascertain the effects of fixed amounts of deletion peptide and insulin on various animal models, including rats and normal and genetically abnormal mice.
(§3) Animals in test groups of five each were employed in these procedures. Sprague-Dawley rats weighed approximately 200 grams; homozygous genetically abnormal mice (ob/ob and db/db) had weights in the range of 40 to 60 grams; and heterozygous normal mice (ob/+ and db/m) all weighed approximately 25 grams. Glucose was administered intraperitoneally at a dosage of 0.05 ml/10g of a solution containing 135 mg/ml glucose, except for one group of rats which were given an oral dose of glucose comprising 1 ml of 270 mg/ml glucose solution. Insulin was administered at a dose of 0.001 mU/10g and deletion peptide was simultaneously intraperitoneally administered at a dose of 5.0 μg/10g.
(§4) The results of plasma glucose determinations performed on blood drawn one hour after administration of test materials are set out in Table III, below.

Rhesus monkeys = assay: Induced hyperglycemia in Rhesus monkeys, plasma glucose over two hours (Example 6); type: in vivo
Experimental: A study was conducted to determine the effects of deletion peptide on induced hyperglycemia in Rhesus monkeys. Blood samples were taken from normal female monkeys (in three experimental groups of three) five minutes before administration of an oral dose of 3.0 ml/kg of 0.5 g/ml glucose and intramuscular administration of either: (1) 0.5 ml/kg phosphate buffered saline (PBS), pH 7.4; (2) deletion peptide 0.1 ml/kg of 1.0 mg/ml solution in PBS; (3) deletion peptide as above combined with 0.5 ml/kg of 20 mU/ml insulin in PBS; or (4) insulin alone as above. Blood samples were then periodically withdrawn over two hours and analyzed for plasma glucose levels. Plasma glucose level data is set out in Table IV.

normal rats [6] = assay: In vivo glucose metabolism in normal rats
Text: (§5) The present invention has its origins, in part, in the results of an extensive series of controlled experiments designed to study the effects of deletion peptide: (a) on in vivo glucose metabolism in normal rats; (b) on in vivo insulin-stimulated glucose uptake by normal rat liver and skeletal muscle tissue; (c) on growth of hypophysectomized rats; and (d) on in vitro glucose utilization of adipocytes isolated from normal rats.

[7] = test system: normal rat liver and skeletal muscle tissue; assay: In vivo insulin-stimulated glucose uptake by normal rat liver and skeletal muscle tissue; conditions: administration in combination with insulin
Text: as §5

hypophysectomized rats = assay: Growth of hypophysectomized rats; type: in vivo
Text: as §5

[8] = test system: adipocytes isolated from normal rats; assay: In vitro glucose utilization of adipocytes isolated from normal rats; type: cell-based
Text: as §5

[9] = Ongoing studies of deletion peptide biological activities in in vivo systems; conditions: preliminary evidence
Text: The above examples establish that deletion peptide alone has no immediate and direct hypoglyamic effect within the protocols of investigations conducted to date. […] Further, certain of these effects appear to be shared by peptides disclosed and claimed in co-owned, co-pending, concurrently-filed U.S. Patent application Ser. No. 501,024, by the inventor herein and co-inventor Theodore Jones, entitled "Biologically Active Peptides Structurally Related to Regions Within Growth Hormones," the disclosures of which are incorporated by reference herein.

normal dog = conditions: portal infusion 1 μg/kg/min
Experimental: Two studies were conducted to determine the effects of deletion peptide on dogs.

normal rats [10] = conditions: cited from earlier work
[11] = test system: GT-impaired strain of mice (YS/Wf Nctr); conditions: cited from earlier work
[12] = test system: insulin-stimulated fat cells of older obese rats; conditions: in vitro; cited from earlier work
fat cells = conditions: compared with the 32-46 peptide findings; cited from earlier work
rabbits = conditions: cited from earlier work
normal rats [13] = conditions: cited from earlier work; remark: listed apart in the source
Sprague-Dawley rats = assay: Plasma glucose after glucose load, fixed insulin and DP doses, rats (Example 4); type: in vivo; conditions: Rat (normal), insulin 0.001 mU/10g
Experimental: as §2, §3, §4

[14] = test system: dog, hyperglycemia induced by infusing glucose; assay: Portal infusion of deletion peptide in dog during induced hyperglycemia with fixed insulin levels (Example 5, second study); type: in vivo; conditions: basal insulin alone, glucose >200 mg/deciliter
Experimental: In the second study, deletion peptide was infused portally at a rate of 1 μg/kg/min during hyperglycemia induced by infusing glucose through a peripheral catheter (to maintain glucose levels in excess of 200 mg/deciliter). Basal glucagon levels were fixed and insulin levels were fixed either at basal or four-fold basal levels.

## peptide duplicating residues 176 through 191: peptide duplicating hGH residues 176 through 191 (FLRIVQCRSVEGSCGF; UniProt P01241 202-217, looked up, fragment)
[1]; hGH carboxy terminal fragment
  glycemic effect: hyperglycemic effect

## human growth hormone [hGH]
[2]
  blood levels of glucose: initially raise and then lower blood levels of glucose
  free fatty acids: lower free fatty acids within one hour of administration, followed by later increasing circulating fatty acids

## EEAYIPKEQKYSFLQ [DP, NH2 -Glu-Glu-Ala-Tyr-Ile-Pro-Lys-Glu-Gln-Lys-Tyr-Ser-Phe-Leu-Gln-COOH]
[3]; DP 25 μg per rat with 10 mU insulin in 1.0% BSA in saline
  Plasma Glucose at 60 minutes: 7.5 ± 0.1 mmol/L
[3]; DP 25 μg per rat, 1.0% BSA in saline, no insulin, fasted rats
  Plasma Glucose at 60 minutes: 8.1 ± 0.2 mmol/L
[3]; DP 50 μg per rat with 10 mU insulin in 1.0% BSA in saline
  Plasma Glucose at 60 minutes: 5.7 ± 0.3 mmol/L
[3]; DP 50 μg per rat, 1.0% BSA in saline, no insulin, fasted rats
  Plasma Glucose at 60 minutes: 7.7 ± 0.2 mmol/L
[3]; DP 100 μg per rat with 10 mU insulin in 1.0% BSA in saline
  Plasma Glucose at 60 minutes: 3.5 ± 0.1 mmol/L
[3]; DP 100 μg per rat, 1.0% BSA in saline, no insulin, fasted rats
  Plasma Glucose at 60 minutes: 8.0 ± 0.4 mmol/L
[3]; deletion peptide alone, up to 100 μg/rat
  effect on glycemia: without effect on glycemia
[3]; increasing doses of deletion peptide with 10 mU insulin
  hypoglycemic effects: progressively greater degrees of hypoglycemic effects
[3]; lowest dose of deletion peptide given with a low dose of insulin in BSA
  effect on plasma glucose: small significant decrease in plasma glucose
[4]; 100 μg DP in 1.0% BSA in saline, 0 mU insulin
  Plasma Glucose at 60 minutes: 8.1 ± 0.2 mmol/L
[4]; 100 μg DP with insulin 7 mU per rat
  Plasma Glucose at 60 minutes: 7.6 ± 0.1 mmol/L
[4]; 100 μg DP with insulin 10 mU per rat
  Plasma Glucose at 60 minutes: 3.5 ± 0.1 mmol/L
[4]; 100 μg DP with insulin 20 mU per rat
  Plasma Glucose at 60 minutes: 3.1 ± 0.1 mmol/L
[4]; 100 μg DP with insulin 40 mU per rat
  Plasma Glucose at 60 minutes: 2.7 ± 0.1 mmol/L
[4]; deletion peptide in addition to 10 mU insulin
  hypoglycemia: significant degree of hypoglycemia
[4]; higher doses of insulin with 100 μg deletion peptide
  potentiation of hypoglycemic effects of insulin: potentiated
[5]; all animals tested in Example 4 (mice and rats)
  potentiation of the hypoglycemic activity of insulin: potentiated the hypoglycemic activity of insulin
Rhesus monkeys; at all post-injection times
  potentiation of insulin effects: potentiated insulin effects
Normal rats [6]; administered alone
  hepatic glycogen synthesis: small, insulin-like effects in increasing hepatic glycogen synthesis
Normal rats [6]; concurrently administered with exogenous insulin
  effects of exogenous insulin: substantially augmented the effects of exogenous insulin
Normal rats [6]; deletion peptide alone, normal rats
  hypoglycemic effect: no hypoglycemic effect
[7]
  incorporation of labelled glucose into liver and skeletal muscle tissue: caused an alteration in the incorporation of labelled glucose
Hypophysectomized rats
  growth stimulating effect: no growth stimulating effect
[8]
  insulin-stimulated glucose uptake by isolated adipocytes: no effect on insulin-stimulated glucose uptake
[9]
  biological activities in in vivo systems: preliminary evidence of insulin secretory stimulation effects, effects on levels of free fatty acids, and effects on glucose uptake by hepatic and muscle tissue
Normal dog
  plasma and hepatic glucose output: minor transient fall
Normal dog; over a period of two hours
  glycemic effects: no glycemic effects
Normal rats [10]
  late increases in free fatty acids and glycemic effects: did not show either the late increases in free fatty acids nor the glycemic effects
[11]
  glucose tolerance: unspecified degree of improvement in glucose tolerance
[12]
  glucose utilization of insulin-stimulated fat cells: in vitro increase in glucose utilization

## hGH positions 1 through 15: fragment duplicating the sequence of amino acid residues at hGH positions 1 through 15 (FPTIPLSRLFDNAML; UniProt P01241 27-41, looked up, fragment)
[1]; hGH amino terminal fragment
  effect on glucose uptake: insulin potentiating effect on glucose uptake

## tetradecapeptide: synthetic tetradecapeptide copying hGH residues at positions 31 through 44 (FEEAYIPKEQKYSF; UniProt P01241 57-70, looked up, fragment)
Fat cells
  in vitro effects on fat cells: substantially the same in vitro effects on fat cells
rabbits
  in vivo hypoglycemic effect: absence of any in vivo hypoglycemic effect
Normal rats [13]
  in vivo hypoglycemic effect: absence of any in vivo hypoglycemic effect

## insulin
[3]; 10 mU insulin in 1.0% BSA in saline, 0 μg DP, fasted rats
  Plasma Glucose at 60 minutes: 8.1 ± 0.2 mmol/L
[3]; low dose of insulin in BSA alone (10 mU, 0 DP)
  effect on glycemia: without effect on glycemia
[4]; higher doses of insulin (20, 40 mU)
  effect on plasma glucose: corresponding decreases in plasma glucose
[4]; insulin 7 mU per rat, 1.0% BSA in saline, no DP
  Plasma Glucose at 60 minutes: 8.0 ± 0.3 mmol/L
[4]; insulin 7.0 mU/rat, whether or not deletion peptide was concurrently administered
  change in glycemia compared with the control group: no change in glycemia
[4]; insulin 10 mU per rat, 1.0% BSA in saline, no DP
  Plasma Glucose at 60 minutes: 8.1 ± 0.2 mmol/L
[4]; insulin 20 mU per rat, 1.0% BSA in saline, no DP
  Plasma Glucose at 60 minutes: 7.0 ± 0.1 mmol/L
[4]; insulin 40 mU per rat, 1.0% BSA in saline, no DP
  Plasma Glucose at 60 minutes: 5.2 ± 0.3 mmol/L
[4]; insulin alone, 10 mU
  effect on plasma glucose concentration: without effect on plasma glucose concentration
[5]; Mouse db/db
  Plasma Glucose at 60 min: 198 ± 31 mg/dL
[5]; Mouse db/m (normal)
  Plasma Glucose at 60 min: 102 ± 10 mg/dL
[5]; Mouse ob/+ (normal)
  Plasma Glucose at 60 min: 99.5 ± 6 mg/dL
[5]; Mouse ob/ob
  Plasma Glucose at 60 min: 167 ± 26 mg/dL
Sprague-Dawley rats; glucose administered orally
  Plasma Glucose at 60 min: 144 ± 12 mg/dL
Sprague-Dawley rats; i.p. glucose
  Plasma Glucose at 60 min: 121 ± 28 mg/dL
[14]
  hepatic glucose output: only reduced hepatic glucose output
Rhesus monkeys; +5 min., oral glucose + i.m. insulin 0.5 ml/kg of 20 mU/ml
  Plasma Glucose: 79 ± 9 mg/dL
Rhesus monkeys; +15 min., oral glucose + i.m. insulin
  Plasma Glucose: 72 ± 10 mg/dL
Rhesus monkeys; +30 min., oral glucose + i.m. insulin
  Plasma Glucose: 85 ± 11 mg/dL
Rhesus monkeys; +45 min., oral glucose + i.m. insulin
  Plasma Glucose: 88 ± 13 mg/dL
Rhesus monkeys; +60 min., oral glucose + i.m. insulin
  Plasma Glucose: 109 ± 14 mg/dL
Rhesus monkeys; +120 min., oral glucose + i.m. insulin
  Plasma Glucose: 108 ± 14 mg/dL
Rhesus monkeys; -5 min. (before administration), oral glucose + i.m. insulin group
  Plasma Glucose: 71 ± 3 mg/dL
